Laboratory results taken from patent US20140349955A1, “USE OF FLUORINE-CONTAINING WATER SOLUBLE PLATINUM COMPLEX IN PREPARING DRUGS FOR PREVENTION AND TREATMENT OF CANCERS” (GUDUI BIOPHARMA TECHNOLOGY INC., priority 2011, published 2014).
pIC50: −log10 of the molar value.

What was measured:
Type in all cases: cell-based
Conditions in all cases: 96 h, read-out: IC50 value in human tumor cells
H460 = experiment: MTS cytotoxicity test, H460
Protocol: (§1) Containing 10% bovine fetal serum, 1 mM of sodium pyruvate, 2 mM of L-glutamine, 50 U/mL of penicillin, 50 μg/mL of streptomycin
(§2) Human tumor cells: dul45-human prostate cancer; MCF-7-human breast cancer; SK0V3-human ovarian carcinoma, HT-29-human colon cancer; A549-human non-small cell lung cancer (adenocarcinoma), H460-human non-small cell lung cancer (large cell carcinoma), and animal tumor cells: L1210-mice leukemia cells used in the following activity test experiments were all purchased from Shanghai An Yan Commercial Trade Co., Ltd.
(§3) MTS test method was used in cytotoxicity assay. The tumor cells of logarithmic phase were collected, and then the concentration of cell suspension was adjusted, 100 μL of the cell suspension was added to each well, the cells were placed at 1000-10000 cells/well (edge well filled with sterile PBS). Cells were incubated at 37° C. with 5% CO2 to make cell monolayer overspread the bottom of each well (96-well flat-bottomed microplate). 100 μL of different concentrations of the test compounds was added to each well. Each condition was measured in five replicates. The microplate was incubated at 37° C. with 5% CO2 for 96 h and checked with inverted microscope. MTS working reagent: To 2 mL of MTS (2 mg/mL, prepared by DPBS) was added 100 μL of PMS (1 mg/mL, prepared by DPBS). The cell culture medium was discarded after centrifugation, the cell culture plate was carefully washed 2-3 times with PBS. Before detecting the absorbance value (OD), to each sample containing well was added 100 μL of cell culture medium, then 20 μL of MTS working reagent was added. After incubation at 37° C. with 5% CO2 for 2 h, the OD (optical density) value was detected at 490 nm.
(§4) Control group: the conditions are the same as the above without adding the active ingredient of antitumor agents, and the OD value was detected at 490 nm on the end of the experiment.
(§5) The cell inhibiting rate of the drugs to tumor cell growth was calculated according to the following formula:
(§6) 1) Cell viability (%)=OD of treated group/OD of control group×100%
(§7) 2) The cell viabilities under the different drug concentrations were determined, and then plotted against drug concentration. The IC50 value is the corresponding concentration in the obtained curve when the cell viability was 50%.

A549 = experiment: MTS cytotoxicity test, A549
Protocol: as §1, §2, §3, §4, §5, §6, §7

HT29 = experiment: MTS cytotoxicity test, HT29
Protocol: as §1, §2, §3, §4, §5, §6, §7

MCF7 = experiment: MTS cytotoxicity test, MCF7
Protocol: as §1, §2, §3, §4, §5, §6, §7

SKOV3 = experiment: MTS cytotoxicity test, SKOV3
Protocol: as §1, §2, §3, §4, §5, §6, §7

DU145 = experiment: MTS cytotoxicity test, DU145
Protocol: as §1, §2, §3, §4, §5, §6, §7

Row | Compound | pIC50 (H460) | pIC50 (A549) | pIC50 (HT29) | pIC50 (MCF7) | pIC50 (SKOV3) | pIC50 (DU145)
1 | O=C1[O][Pt]2([NH]C3CCCCC3[NH]2)[O]C(=O)C1(F)CCOC1OC(CO)C(O)C(O)C1O (stereo not drawn) [Complex 8] | 5.00 | 5.29 | 5.97 | 5.29 | 4.31 | 5.29
2 | O=C1[O][Pt]2([NH]C3CCCCC3[NH]2)[O]C(=O)C1(F)CCCOC1OC(CO)C(O)C(O)C1O (stereo not drawn) [Complex 6] | 4.65 | 4.66 | 5.64 | 5.69 | 4.65 | 5.00
3 | O=C1[O][Pt]2([NH]C3CCCCC3[NH]2)[O]C(=O)C1(F)CCOC1OC(CO)C(O)C(O)C1O (stereo not drawn) [Complex 5] | 4.99 | 6.19 | 5.67 | 6.39 | 5.65 | 5.58
